Source: article PMC6562704, “Antihypertensive Effect in Vivo of QAGLSPVR and Its Transepithelial Transport Through the Caco-2 Cell Monolayer” (Marine Drugs, 2019)
Blank lines part the entries; values can stand above or below the substance they belong to. Ends that are not written are not given here.

Key:
SHRs = conditions: cited from earlier work
Excerpt: Bioactive peptides are exposed through systemic circulation in human tissues. Unfortunately, bioactive peptides may be hydrolyzed before they reach the target tissues during passage through and absorption by the small intestine. […] For example, FKGRYYP was identified from ch ...

[1] = biological target: angiotensin-I-converting enzyme (ACE); conditions: in vitro; read-out: IC50 for ACEI activity in vitro; cited from earlier work
Excerpt: In our previous studies, enzymatic hydrolysates of tilapia skin gelatin were obtained using simulated gastrointestinal digestion. The hydrolysates were isolated and purified, and QAGLSPVR was obtained by successive chromatography of the gelatin hydrolysates. […] The present study aims to confirm the in vivo antihypertensive effect of QAGLSPVR by using the SHR model. […] Bioactive peptides are exposed through systemic circulation in human tissues. Unfortunately, bioactive peptides may be hydrolyzed before they reach the target tissues during passage through and absorption by the small intestine. […] For example, FKGRYYP was identified from ch ...

Caco-2 cell monolayer [2] = experiment: Transepithelial transport through the Caco-2 cell monolayer; format: in vitro ADME, human
Procedure: Caco-2 cells (1 × 10^5 cells/well) were routinely cultured in Dublecco’s modified Eagle’s medium with 15% FBS, […] streptomycin and 100 U/mL penicillin. Caco-2 cell monolayer was cultured in six-well Transwell plastic plates in a humidified incubator with 5% CO2 at 37 °C and Caco-2 cell monolayer can be used to perform transport experiments when the transepithelial resistance is higher than 400 Ω/cm^2 [29]. The Caco-2 cell culture medium was substituted with Hank’s balanced salt solution (HBSS) buffer (preheated at 37 °C for 30 min) prior to the transport experiment. The cell monolayer was cultured in HBSS buffer and maintained at 37 °C for 2 h. QAGLSPVR (2 mg/mL, 1.5 mL, dissolved in HBSS) was added to the AP of the cell monolayer, while HBSS buffer (2.5 mL) was added to the BL. The Caco-2 cell monolayer was cultured for 0.5, 1, or 2 h in an incubator at 37 °C. The AP and BL fractions were collected at different times. QAGLSPVR concentrations in the BL were detected by UPLC-Q-Orbitrap-MS^2 analysis according to our previous method, and the transport percentages of QAGLSPVR at different times were calculated.
The transport patterns of QAGLSPVR through the Caco-2 cell monolayer were studied using different transport inhibitors and enhancers. In brief, Gly-Sar, wortmannin, and cytochalasin D were dissolved in DMSO (final concentration of DMSO in HBSS = 0.05%) and final concentrations of25 mM, 500 nM, and 0.5 μg/mL, respectively. The Caco-2 cell monolayer was pre-incubated with Gly-Sar (a peptide transporter PepT1 substrate), wortmannin (atranscytosis inhibitor), or cytochalasin D (a TJ disruptor)for 30 min followed by addition of 1.5 mL of 2 mg/mL QAGLSPVR to the AP and 2.5 mL of fresh HBSS to the BL. After 2 h of incubation, the QAGLSPVR content in the BL was determined via UPLC-Q-Orbitrap-MS^2 analysis according to our previous method, and transport percentages were calculated.

Caco-2 cell monolayer [3] = conditions: cited from earlier work
Procedure: QAGLSPVR was proven to produce a clear antihypertensive effect on SHRs in this study. To validate whether QAGLSPVR could be completely absorbed to regulate blood pressure, the transport percentage of QAGLSPVR was evaluated via the Caco-2 cell monolayer model. Caco-2 cells can be used as an in vitro model of the human intestinal epithelium due to the various brush border membrane enzymes characterizing these cells. At least eight membrane enzymes are expressed by Caco-2 cells. The brush border membrane enzymes are membrane peptidases and can hydrolyze peptides into short fragments prior ...

Substance: FKGRYYP [peptide identified from chicken muscle hydrolysates]
- antihypertensive activity after oral administration to SHRs (in words) (SHRs): no antihypertensive activity
- IC50 [1]: 550 µM

- effect of cytochalasin D on QAGLSPVR transport (in words) (Caco-2 cell monolayer [2]; Caco-2, AP to BL, 30 min pre-incubation with 0.5 μg/mL cytochalasin D (TJ disruptor), 2 mg/mL peptide, HBSS, 2 h, UPLC-Q-Orbitrap-MS^2, p < 0.05): significantly increased
- effect of wortmannin on QAGLSPVR transport (in words) (Caco-2 cell monolayer [2]; Caco-2, AP to BL, 30 min pre-incubation with 500 nM wortmannin (transcytosis inhibitor), 2 mg/mL peptide, HBSS, 2 h, UPLC-Q-Orbitrap-MS^2, p > 0.05): did not significantly affect
- effect of Gly-Sar on QAGLSPVR transport (in words) (Caco-2 cell monolayer [2]; Caco-2, AP to BL, 30 min pre-incubation with 25 mM Gly-Sar (PepT1 substrate), 2 mg/mL peptide, HBSS, 2 h, UPLC-Q-Orbitrap-MS^2, p > 0.05): no significant effect
- integrity on transport through the Caco-2 cell monolayer (in words) (Caco-2 cell monolayer [2]; Caco-2 monolayer, AP to BL, HBSS, 2 mg/mL, 37 °C, 0.5-2 h, UPLC-Q-Orbitrap-MS^2): transported intact
- transport percentage (Caco-2 cell monolayer [2]; Caco-2 monolayer, AP to BL, six-well Transwell, transepithelial resistance > 400 Ω/cm^2, HBSS, 2 mg/mL peptide (1.5 mL) in AP, 2.5 mL HBSS in BL, 37 °C, 2 h, UPLC-Q-Orbitrap-MS^2, mean ± SD): 3.5%
Substance: QAGLSPVR [QAGLSPVR]

Substance: QIGLF
- absorption through the Caco-2 cell monolayer (in words) (Caco-2 cell monolayer [3]): absorbed intact

Substance: RKQLQGVN
- absorption through the Caco-2 cell monolayer (in words) (Caco-2 cell monolayer [3]): absorbed intact

Substance: TNGIIR
- absorption through the Caco-2 cell monolayer (in words) (Caco-2 cell monolayer [3]): absorbed intact

Substance: YLGYLEQ
- absorption through the Caco-2 cell monolayer (in words) (Caco-2 cell monolayer [3]): absorbed intact
